From ChEMBL document CHEMBL1201862, “PubChem BioAssay data set” (2004)
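Exposure lasted 48 hours, with cells grown in 96-well plates and compounds tested at five concentrations. GI50 marks 50% less growth.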 The source made the active and inactive calls. Cut-off read from the data, not from the text of the source: active = GI50 up to about 1.1 µM and inactive = higher.

What was measured:
Test in all cases: growth of human tumour cells (NCI), 48 h
[1] = test system: A498
[2] = test system: ACHN
[3] = test system: CAKI-1
[4] = test system: HCT-116
[5] = test system: HL-60
[6] = test system: IGROV-1
[7] = test system: K562
[8] = test system: LOX IMVI
[9] = test system: MDA-MB-231
[10] = test system: NCI-H23
[11] = test system: NCI-H460
[12] = test system: NCI-H522
[13] = test system: OVCAR-4
[14] = test system: PC-3
[15] = test system: RPMI-8226
[16] = test system: SK-MEL-28
[17] = test system: SK-MEL-5
[18] = test system: SN12C
[19] = test system: SW-620
[20] = test system: TK-10

Structure (SMILES) | GI50 [1] | GI50 [2] | GI50 [3] | GI50 [4] | GI50 [5] | GI50 [6] | GI50 [7] | GI50 [8] | GI50 [9] | GI50 [10] | GI50 [11] | GI50 [12] | GI50 [13] | GI50 [14] | GI50 [15] | GI50 [16] | GI50 [17] | GI50 [18] | GI50 [19] | GI50 [20]
O=C1c2ccccc2C(=O)c2c(NCCCNCCO)ccc(NCCCNCCO)c21 | 15.9 µM (inactive) | 4.51 µM (inactive) | 10 µM (inactive) | 4.33 µM (inactive) | 8.97 µM (inactive) | 15.7 µM (inactive) | 2.64 µM (inactive) | 3.5 µM (inactive) | 11.6 µM (inactive) | 10.7 µM (inactive) | 3.8 µM (inactive) | 3.03 µM (inactive) | 9.82 µM (inactive) | 7.67 µM (inactive) | 10.6 µM (inactive) | 12 µM (inactive) | 13.4 µM (inactive) | 4 µM (inactive) | 5.13 µM (inactive) | 16 µM (inactive)
Nc1ccccc1SC(C[N+](=O)[O-])c1ccc2c(c1)OCO2 (stereo not given) | 8.39 µM (inactive) | 6.46 µM (inactive) | 13.7 µM (inactive) | 1.81 µM (inactive) | 1.9 µM (inactive) | 1.51 µM (inactive) | 1.63 µM (inactive) | 1.75 µM (inactive) | 7.1 µM (inactive) | 3.08 µM (inactive) | 2.12 µM (inactive) | 14.1 µM (inactive) | 11.6 µM (inactive) | 7.66 µM (inactive) | 1.22 µM (inactive) | 3.4 µM (inactive) | 3.26 µM (inactive) | 3.37 µM (inactive) | 2.31 µM (inactive) | 2.63 µM (inactive)
CCOC(=O)C(NC(=O)CC(C)C)(N1CCN(c2cc3c(cc2F)c(=O)c(C(=O)O)cn3C2CC2)CC1)C(F)(F)F (stereo not given) | 1.73 µM (inactive) | 12.5 µM (inactive) | 24.9 µM (inactive) | 20.4 µM (inactive) | 5.75 µM (inactive) | 12.6 µM (inactive) | 11 µM (inactive) | 15.8 µM (inactive) | 22 µM (inactive) | 7.46 µM (inactive) | 28.1 µM (inactive) | 2.73 µM (inactive) | 20.8 µM (inactive) | 15 µM (inactive) | 20.9 µM (inactive) | 20.9 µM (inactive) | 12.7 µM (inactive) | 27.5 µM (inactive) | 19.6 µM (inactive) | 10.3 µM (inactive)
CN(/N=C(\C(=O)O)c1ccccc1)C1=NCCN1 | > 100 µM (inactive) | > 100 µM (inactive) | > 100 µM (inactive) | > 100 µM (inactive) | > 100 µM (inactive) | 54.2 µM (inactive) | > 100 µM (inactive) | > 100 µM (inactive) | > 100 µM (inactive) | > 100 µM (inactive) | > 100 µM (inactive) | > 100 µM (inactive) | > 100 µM (inactive) | > 100 µM (inactive) | > 100 µM (inactive) | > 100 µM (inactive) | > 100 µM (inactive) | > 100 µM (inactive) | > 100 µM (inactive) | > 100 µM (inactive)
Cc1cccc(C)c1NC(=O)C(C#N)C1=C(Cl)C(=O)c2ccccc2C1=O (stereo not given) | 14.8 µM (inactive) | 15.2 µM (inactive) | 18.5 µM (inactive) | 15.4 µM (inactive) | 5.53 µM (inactive) | 17 µM (inactive) | 2.77 µM (inactive) | 9.33 µM (inactive) | 18.6 µM (inactive) | 18.7 µM (inactive) | 22.1 µM (inactive) | 10.5 µM (inactive) | 16 µM (inactive) | 13.8 µM (inactive) | 8.67 µM (inactive) | 20.2 µM (inactive) | 13 µM (inactive) | 17.4 µM (inactive) | 11.9 µM (inactive) | 19.5 µM (inactive)
O=C(NNC(=O)c1ccncc1)C(=O)Nc1cc(Cl)c(Cl)cc1Cl | > 100 µM (inactive) | > 100 µM (inactive) | > 100 µM (inactive) | > 100 µM (inactive) | > 100 µM (inactive) | 45.6 µM (inactive) | > 100 µM (inactive) | > 100 µM (inactive) | > 100 µM (inactive) | > 100 µM (inactive) | > 100 µM (inactive) | > 100 µM (inactive) | > 100 µM (inactive) | > 100 µM (inactive) | > 100 µM (inactive) | > 100 µM (inactive) | > 100 µM (inactive) | > 100 µM (inactive) | > 100 µM (inactive) | > 100 µM (inactive)
CCOC(=O)C1=c2[nH]c3cccc4cccc(c43)n2C(=O)CC1c1ccccc1 (stereo not given) | > 100 µM (inactive) | > 100 µM (inactive) | > 100 µM (inactive) | > 100 µM (inactive) | 95.5 µM (inactive) | > 100 µM (inactive) | > 100 µM (inactive) | > 100 µM (inactive) | > 100 µM (inactive) | > 100 µM (inactive) | > 100 µM (inactive) | > 100 µM (inactive) | > 100 µM (inactive) | > 100 µM (inactive) | > 100 µM (inactive) | > 100 µM (inactive) | > 100 µM (inactive) | > 100 µM (inactive) | > 100 µM (inactive) | > 100 µM (inactive)
COc1c(O)cc2c(c1O)C(=O)C(Cc1ccc(O)cc1)CO2 (stereo not given) | > 100 µM (inactive) | > 100 µM (inactive) | 78.9 µM (inactive) | 99.1 µM (inactive) | 28.1 µM (inactive) | > 100 µM (inactive) | 22.8 µM (inactive) | > 100 µM (inactive) | > 100 µM (inactive) | > 100 µM (inactive) | 44.6 µM (inactive) | 80.7 µM (inactive) | 40.3 µM (inactive) | 41.7 µM (inactive) | 25.7 µM (inactive) | 59.7 µM (inactive) | 84.9 µM (inactive) | > 100 µM (inactive) | > 100 µM (inactive) | > 100 µM (inactive)
CC1CCC2C(C(=O)O[C@H]3C4C=CO[C@@H](OC5OC(CO)C(O)C(O)C5O)C4[C@@]4(CO)O[C@@H]34)=CO[C@@H](OC3OC(CO)C(O)C(O)C3O)C12 (stereo not given in full) | > 10 µM (inactive) | > 10 µM (inactive) | > 10 µM (inactive) | > 10 µM (inactive) | > 10 µM (inactive) | > 10 µM (inactive) | > 10 µM (inactive) | > 10 µM (inactive) | > 10 µM (inactive) | > 10 µM (inactive) | > 10 µM (inactive) | > 10 µM (inactive) | > 10 µM (inactive) | > 10 µM (inactive) | > 10 µM (inactive) | > 10 µM (inactive) | > 10 µM (inactive) | > 10 µM (inactive) | > 10 µM (inactive) | > 10 µM (inactive)
CCc1nc(N)nc(N)c1-c1ccc(N2CCOCC2)c(N=[N+]=[N-])c1 | > 92 µM (inactive) | 46 µM (inactive) | 62.2 µM (inactive) | 18.4 µM (inactive) | > 28.2 µM (inactive) | 28.2 µM (inactive) | 8.79 µM (inactive) | 38.7 µM (inactive) | > 100 µM (inactive) | 37.2 µM (inactive) | 8.85 µM (inactive) | 20.9 µM (inactive) | 70.6 µM (inactive) | 42.6 µM (inactive) | > 89.5 µM (inactive) | > 100 µM (inactive) | 37.2 µM (inactive) | > 80.5 µM (inactive) | 41.9 µM (inactive) | > 100 µM (inactive)
COc1cc2c3c(c4cc(OC)c(OC)cc4c2cc1OC)[C@H](O)[C@@H]1CCCN1C3 | < 0.0208 µM (active) | < 0.0157 µM (active) | < 0.0324 µM (active) | < 0.0215 µM (active) | < 0.0357 µM (active) | < 0.0275 µM (active) | < 0.021 µM (active) | < 0.0265 µM (active) | < 0.0342 µM (active) | < 0.0344 µM (active) | < 0.0226 µM (active) | < 0.0378 µM (active) | < 0.0234 µM (active) | < 0.0303 µM (active) | < 0.0253 µM (active) | < 0.0284 µM (active) | < 0.0259 µM (active) | < 0.0303 µM (active) | < 0.0269 µM (active) | 0.0562 µM (active)
CCOC(=O)C1=C(C)NC(C)=C(C(=O)OCCNC(=O)c2ccc(N=[N+]=[N-])cc2)C1c1ccccc1C(F)(F)F (stereo not given) [AZIDOPINE] | > 10 µM (inactive) | 7.64 µM (inactive) | 12.4 µM (inactive) | 9.73 µM (inactive) | 7.66 µM (inactive) | 18.7 µM (inactive) | 7.83 µM (inactive) | 10.7 µM (inactive) | 14 µM (inactive) | 11.3 µM (inactive) | 9.12 µM (inactive) | 8.39 µM (inactive) | 12.2 µM (inactive) | 3.28 µM (inactive) | 4.37 µM (inactive) | 13.4 µM (inactive) | 7.85 µM (inactive) | 15.1 µM (inactive) | 15.3 µM (inactive) | 8.22 µM (inactive)
